# Reference: paper PMC7459591 (Marine Drugs, 2020)
# Columns and labels:
# human Kv1.4 channel = type: cell-based
# human Kv1.5 channel = type: cell-based
smiles,measurement,setting,value
"CSCC[C@H](NC(=O)[C@@H]1CCCN1C(=O)CNC(=O)[C@H](CO)NC(=O)[C@@H](NC(=O)[C@H](C)N)[C@@H](C)O)C(=O)NCC(=O)N[C@@H](Cc1c[nH]c2ccccc12)C(=O)N[C@@H](CC(C)C)C(=O)N1CCC[C@H]1C(=O)N[C@H](C(=O)N[C@@H](Cc1ccccc1)C(=O)N[C@@H](Cc1ccc(O)cc1)C(=O)N[C@@H](CCCNC(=N)N)C(=O)N[C@@H](Cc1ccccc1)C(N)=O)C(C)C [CNF-Sr3, Conorfamide-Sr3]","Decrease of current, Kv1.4",human Kv1.4 channel,less than 5%
same,"Decrease of current, Kv1.5",human Kv1.5 channel,less than 5%
